Where a SMILES comes first, the peptide text is derived from it. The star is where a group is joined. Cbz = O=C(OCc1ccccc1)*; CH2F = FC*
Target: T1, M-Calpain activity in HT-29 cells (Homo sapiens, UniProt P17655)
T1 construct: endogenous in cells; host or cells: HT-29 human colorectal cancer cells
T1 sequence (P17655 20-700 limits assumed): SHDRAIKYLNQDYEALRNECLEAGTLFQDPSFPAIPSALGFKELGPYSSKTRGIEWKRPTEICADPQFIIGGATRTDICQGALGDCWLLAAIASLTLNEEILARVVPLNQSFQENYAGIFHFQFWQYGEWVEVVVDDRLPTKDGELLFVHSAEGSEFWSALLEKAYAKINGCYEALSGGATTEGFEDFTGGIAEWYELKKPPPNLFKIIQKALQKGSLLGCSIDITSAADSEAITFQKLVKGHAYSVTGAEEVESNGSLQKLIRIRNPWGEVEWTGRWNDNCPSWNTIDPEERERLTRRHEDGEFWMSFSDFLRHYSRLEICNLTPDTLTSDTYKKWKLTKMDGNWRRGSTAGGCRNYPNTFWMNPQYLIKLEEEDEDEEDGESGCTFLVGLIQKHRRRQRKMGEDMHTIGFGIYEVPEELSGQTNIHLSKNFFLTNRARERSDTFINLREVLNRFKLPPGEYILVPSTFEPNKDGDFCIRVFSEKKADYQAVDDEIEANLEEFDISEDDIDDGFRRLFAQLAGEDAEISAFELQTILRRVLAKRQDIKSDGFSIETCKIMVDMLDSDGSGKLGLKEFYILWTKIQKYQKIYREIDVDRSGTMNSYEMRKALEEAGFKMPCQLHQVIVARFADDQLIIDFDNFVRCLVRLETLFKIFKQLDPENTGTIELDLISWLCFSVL
T1 sequence (P04632 1-268 partner): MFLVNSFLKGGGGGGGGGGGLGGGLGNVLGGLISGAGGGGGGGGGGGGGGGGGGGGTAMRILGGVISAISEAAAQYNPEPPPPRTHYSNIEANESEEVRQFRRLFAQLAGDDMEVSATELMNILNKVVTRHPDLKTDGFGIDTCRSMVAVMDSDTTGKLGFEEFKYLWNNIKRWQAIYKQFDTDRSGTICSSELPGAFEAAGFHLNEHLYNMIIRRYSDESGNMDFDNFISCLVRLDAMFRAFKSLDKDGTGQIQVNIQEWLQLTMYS
Assay: Calpain Activity Assay Kit (BioVision), HT-29
Format: cell-based
Conditions: HT-29, vs DMSO, 1 hour
Description: Bone marrow derived macrophages (BMDM) were prepared as previously described by methods known to those skilled in the art. On day 5 of culture, 2×10^6 BMDM were seeded in 6-well plates and the following day were primed for 18 h with TNFα (20 ng/mL), followed by 1 h stimulation with E. faecalis (1 μg/mL; ATCC). Stimulation with E. faecalis was conducted in the presence of the zLLY-CH2F calpain-2 inhibitor (20 μg/mL) or DMSO as a control. Media was removed from treated BMDM, centrifuged at 300×g for 5 min and supernatent analyzed using the Cytometric Bead Array Mouse Inflammation Kit (BD Biosciences, San Jose, Calif.). Cytokine data were analyzed using Flowjo software (Ashland, Oreg.) and GraphPad Prism version 4.0 (GraphPad, La Jolla, Calif.). Cell pellets were lysed and analyzed for IκB and NFκB by Western blot as previously described (Miyazaki, T. et al. Journal of Atherosclerosis and Thrombosis 20, 228-237, 2013). […] Each day 4 wells were quantified using Celltiter MTS reagent (Promega) and the resulting signal was used to generate a proliferation curve. Calpain activity was measured using a Calpain activity assay kit (BioVision, Inc., Milpitas, Calif.) as previously described. Colons were harvested on day 4 and calpain activity measured. […]

M-Calpain activity: reduced
Compound: CC(C)C[C@H](NC(=O)OCc1ccccc1)C(=O)N[C@@H](CC(C)C)C(=O)N[C@@H](Cc1ccc(O)cc1)C(=O)CF [zLLY-CH2F, Z-LLY-CH2F] (Cbz-Leu-Leu-Tyr-CH2F)
